Reference: patent publication US20100311035A1, “Preservation solution for organs and biological tissues” (priority 2005, published 2010)

Assays:
Rat kidneys = assay: Machine perfusion of rat kidneys for 24 hours, transplantation, post-transplant serum creatinine; assay type: in vivo; conditions: component(s) added to Belzer solution; kidneys preserved under machine perfusion for 24 hours, then transplanted; serum creatinine measured hourly for 6 hours; control BELZ solution; FIG. 2
Protocol: Rat kidneys were recovered as above. Seven different solutions were prepared for comparison according to Table 2. […] The kidneys were preserved under machine perfusion for 24 hours with the respective solutions, and transplanted into recipient animals. Post-transplant serum creatinine (S. CREAT) was measured hourly for 6 hours.

[1] = test system: Sprague-Dawley rat kidneys; assay: Cold storage of rat kidneys for 24 hours, transplantation, post-transplant serum creatinine; assay type: in vivo; conditions: component(s) added to Viaspan; kidneys preserved under static conditions for 24 hours at 4° C, then transplanted; serum creatinine measured hourly for 6 hours; control VIASP solution; FIG. 1
Protocol: Sprague-Dawley rat kidneys were recovered in the normal fashion and were exsanguinated and cooled to 4° C. Experimental components were added to the solution to test for improvements in post-transplant function (indicated by serum creatinine levels). Seven different solutions were prepared for comparison according to Table 1. […] The kidneys were preserved under static conditions for 24 hours with the respective solutions, and transplanted into recipient animals. Post-transplant serum creatinine (S. CREAT) was measured hourly for 6 hours.

With `N=C(N)NCCC[C@H](N)C(=O)O` [L-arginine] the “improvement in post-transplant function (serum creatinine) compared to the control” value (Rat kidneys) was “Minimal, but statistically insignificant improvements” and the “improvement in post-transplant function (indicated by serum creatinine levels) compared to the control” value [1] was “Minimal, but statistically insignificant improvements”.

With `CC(=O)N[C@@H](CS)C(=O)O` [N-acetylcystein] the “improvement in post-transplant function (serum creatinine) compared to the control” value (Rat kidneys) was “Minimal, but statistically insignificant improvements” and the “improvement in post-transplant function (indicated by serum creatinine levels) compared to the control” value [1] was “Minimal, but statistically insignificant improvements”.

For `O=[N+]([O-])OCC(CO[N+](=O)[O-])O[N+](=O)[O-]` [nitroglycerin], the “improvement in post-transplant function (serum creatinine) compared to the control” value (Rat kidneys) was “Minimal, but statistically insignificant improvements” and the “improvement in post-transplant function (indicated by serum creatinine levels) compared to the control” value [1] was “Minimal, but statistically insignificant improvements”.

For `CCCCC[C@H](O)/C=C/[C@H]1[C@H](O)CC(=O)[C@@H]1CCCCCCC(=O)O` [prostaglandin E1], the “improvement in post-transplant function (serum creatinine) compared to the control” value (Rat kidneys) was “Minimal, but statistically insignificant improvements” and the “improvement in post-transplant function (indicated by serum creatinine levels) compared to the control” value [1] was “Minimal, but statistically insignificant improvements”.
